Source: patent US7902327B2, “Dendrimeric peptides, pharmaceutical compositions and methods of using the same” (New York University School of Medicine, priority 2007, dated 2011)
In brackets after ≈: the same amount, converted by molar mass. Read-outs that look alike come from different tables or passages of the source.

How the values were obtained:
[1] = test system: E. faecalis (29212); assay: microbe, parasite or virus in culture; settings: Enterococcus faecalis, read-out: MIC50 E. faecalis
[2] = test system: B. anthracis (32F2 Sterne); assay: microbe, parasite or virus in culture; settings: Bacillus anthracis, read-out: MIC50 B. anthracis
[3] = test system: multi-drug resistant strain S. aureus
[4] = test system: fresh sheep erythrocytes; assay: hemolytic assay; format: cell-based; settings: sheep, 30 min, pH 7.2
Procedure: Hemolytic activity of model peptides was assessed on fresh sheep erythrocytes (Fitzgerald Inc., Concord, Mass.). […] The resulting supernatant was diluted by a factor of 40 in distilled water. The absorbances of the supernatant at λ=540 nm (OD540) were measured in the UV Spectrophotometer. […] Hemolytic index (HI) was defined as HI═HD50/IC50.

[5] = test system: B. Subtilis (ATCC 6633); assay: microbe, parasite or virus in culture; settings: Bacillus subtilis, ATCC6633, read-out: MIC50 B. subtilis
[6] = test system: ampicillin- and streptomycin-resistant E. coli (D31)
[7] = test system: ampicillin- and streptomycin-resistant E. coli (D31); assay: microbe, parasite or virus in culture; settings: Escherichia coli, read-out: MIC50 E. coli
[8] = test system: multi-drug resistant strain S. aureus; assay: microbe, parasite or virus in culture; settings: Staphylococcus aureus, read-out: MIC50 S. aureus

CC(C)(O/N=C(\C(=O)N[C@@H]1C(=O)N2C(C(=O)[O-])=C(C[n+]3ccccc3)CS[C@H]12)c1csc(N)n1)C(=O)O [Ceftazidime]
MIC50 [1]: 14 µg/mL (≈ 25.6 µM) | MIC50 [2]: 91 µg/mL (≈ 166 µM) | MIC50 S. aureus ([3]; 75 mM NaCl): 63 µg/mL (≈ 115 µM) | MIC50 S. aureus ([3]; 150 mM NaCl): 63 µg/mL (≈ 115 µM) | HD50 (peptide concentration corresponding to 50% hemolysis) [4]: >2000 µg/mL | MIC50 [5]: 6.2 µg/mL (≈ 11.3 µM) | MIC50 E. coli ([6]; 75 mM NaCl): 44 µg/mL (≈ 80.5 µM) | MIC50 E. coli ([6]; 150 mM NaCl): 44 µg/mL (≈ 80.5 µM) | MIC50 [7]: 44 µg/mL (≈ 80.5 µM) | MIC50 [8]: 63 µg/mL (≈ 115 µM)
